The source of these data is US20160310501A1, “GABA[…] SIGMA RECEPTOR LIGANDS COMBINATIONS” (LABORATORIOS DEL DR. ESTEVE, S.A., priority 2013, published 2016).

In this assay the test system is post-operative pain model in rats. Put plainly: Mechanical allodynia (von Frey filaments) in the post-operative pain model (plantar incision). The assay is classed as in vivo. As to the method: The induction of anesthesia in rats was performed with 3% isofluran for veterinary use, employing an Ohmeda vaporizer and an anesthesia chamber. Anesthesia was kept during the surgical operation by a tube which directs the isofluran vapors to the animal's snout. Once the rats were anesthetized, they were laid down in a prone position and their right hind paws were cleaned out with alcohol.
Then, a skin incision in the hindpaw of about 10 mm was made by means of a scalpel, starting about 5 mm from the heel and extending toward the toes. Fascia was located and by means of curve scissors muscle was elevated and a longitudinal incision of about 5 mm was made, thus the muscle origin and insertion remained intact. The skin of the paw was stitched with a suturing stitch with breaded silk (3.0) and the wound was cleaned out with povidone.
The assessment was performed 30 minutes after the administration of product and always 4 hours after the plantar incision. The analysis was carried out evaluating the mechanical allodynia. It was tested using von Frey filaments: Animals were placed in methacrylate cylinders on an elevated surface, with metallic mesh floor perforated in order to apply the filaments. After an acclimation period of about 30 minutes within the cylinders, both hindpaws were stimulated (the injured and the non-injured paw, serving the latter as control), starting with the lowest force filament (0.4 g) and reaching a 15 g filament. The animal's response to pain was manifested by the withdrawal of the paw as a consequence of the painful stimulus caused by a filament.
The efficacy of the combined use of Pregabalin and compound 63.HCl was tested at different doses of compound 63.HCl (5, 10, 20, 40 and 80 mg/kg), while the Pregabalin dose remained constant (0.04 mg/kg). The administrations were performed 3.5 hours after surgery. The treated subjects were tested according to the mechanical allodynia protocol above (FIG. 1).
The efficacy of the combined use of Gabapentin and compound 63.HCl was tested at different doses of compound 63.HCl (10, 20, 40 and 80 mg/kg), while the Gabapentin dose remained constant (10 mg/kg). The administrations were performed 3.5 hours after surgery. The treated subjects were tested according to the mechanical allodynia protocol above (FIG. 2).

As a reminder, the ED50 is the midpoint of the dose-response relation.

Where a name gives a salt, the structure may show the parent alone.

For `NCC1(CC(=O)O)CCCCC1` [Gabapentin], where the note is “Gabapentin alone at 10 mg/kg, non-significant, FIG. 2”, the “effect (analgesia, mechanical allodynia)” value was determined as 0±2%.

Under “Rattus norvegicus, compound alone, 10, 20, 40 and 80 mg/kg, FIG. 2”, `Cc1cc(OCCN2CCOCC2)nn1-c1ccc2ccccc2c1` [compound 63.HCl, 4-{2-[5-Methyl-1-(naphthalen-2-yl)-1H-pyrazol-3-yloxy]ethyl}morpholine hydrochloride] returned an ED50 of 40 mg/kg. Moreover, the Emax (Rattus norvegicus, compound alone, dose dependent (5, 10, 20, 40 and 80 mg/kg), FIG. 1, 30 min after administration, 4 h after plantar incision, read-out: maximum effect) came to 43%.

On to `CC(C)C[C@H](CN)CC(=O)O` [Pregabalin], for which, under “Pregabalin alone, sub-active dose 0.04 mg/kg, FIG. 1”, the “effect (analgesia, mechanical allodynia)” value is “non-significant effect”.
